# From JP2022155560A, “スガマデクスの光分解抑制方法” (Fuji Pharma Co Ltd, priority 2021, dated 2022)
# Experiments:
# [1] = Formation of sugammadex photodegradant (disulfide, printed ジスルフィド体) on light irradiation (Example 2, HPLC); format: physicochemical; conditions: after light irradiation, n=3
# [2] = Photostability of sugammadex sodium solution in glass containers with or without light-cutting film (Example 1, HPLC); format: physicochemical; conditions: for total amount of substances other than sugammadex: n=3
# [3] = after light irradiation (1,200,000 lux·h, 280 W·h/m2), UVcut 500 film compared with UVcut 400 film
# [4] = after light irradiation (1,200,000 lux·h, 280 W·h/m2), film-wrapped samples (UVcut 400 or UVcut 500), compared with no film wrapping
smiles,measurement,setting,value
"O=C([O-])CCSC[C@H]1O[C@@H]2O[C@H]3[C@H](O)[C@@H](O)[C@@H](O[C@H]4[C@H](O)[C@@H](O)[C@@H](O[C@H]5[C@H](O)[C@@H](O)[C@@H](O[C@H]6[C@H](O)[C@@H](O)[C@@H](O[C@H]7[C@H](O)[C@@H](O)[C@@H](O[C@H]8[C@H](O)[C@@H](O)[C@@H](O[C@H]9[C@H](O)[C@@H](O)[C@@H](O[C@H]1[C@H](O)[C@H]2O)O[C@@H]9CSCCC(=O)[O-])O[C@@H]8CSCCC(=O)[O-])O[C@@H]7CSCCC(=O)[O-])O[C@@H]6CSCCC(=O)[O-])O[C@@H]5CSCCC(=O)[O-])O[C@@H]4CSCCC(=O)[O-])O[C@@H]3CSCCC(=O)[O-].[Na+].[Na+].[Na+].[Na+].[Na+].[Na+].[Na+].[Na+] [スガマデクス, octakis(6-S-(2-carboxyethyl)-6-thio)cyclomaltooctaose octasodium salt]",formation of sugammadex disulfoxide (スガマデクスのジスルフィド体 in the source),"[1]; light up to 400 nm cut, relative to sample without film wrapping",フィルム包装なしのサンプルの半分程度
same,formation of sugammadex disulfoxide (スガマデクスのジスルフィド体 in the source),[1]; light up to 500 nm cut,ほとんど生成されていなかった
same,effect of suppressing increase of photodegradation products,[2]; [3],顕著に高かった
same,purity of sugammadex,[2]; [3],純度が高く
same,increase in total amount of substances other than sugammadex,[2]; [4],増大が抑えられており
same,residual rate of sugammadex,[2]; [4],残存率が高かった
same,total amount of substances other than sugammadex,"[2]; after light irradiation (1,200,000 lux·h, 280 W·h/m2), no film wrapping",5.12%
same,total amount of substances other than sugammadex,"[2]; before light irradiation, no film wrapping, 100 mg/mL aqueous solution, pH 7-8",2.14%
same,photodegradation of sugammadex,"[2]; chromatograms before vs after light irradiation, no film wrapping",光照射により分解されたことが確認された
